The structures appear in SMILES notation. Read-outs that look alike come from different tables or passages of the source.

Here are results for one compound from paper PMC4907212, “Mucosal and blood-brain barrier transport kinetics of the plant N-alkylamide spilanthol using in vitro and in vivo models” (BMC Complementary and Alternative Medicine, 2016).

Details of data set [1]: method as in PMID 20227845, PMID 19808085, PMID 23583736. Particulars: human skin, topical application; cited from earlier work.
The nature of data set [2]: Capillary depletion (distribution brain parenchyma versus capillaries). Format: in vivo, ICR-CD-1 mice. The settings on record: female, ICR-CD-1, mouse, iv, 80 μg per mouse, mice, 10 min after i.v. injection. The method, then:
To investigate the distribution of spilanthol in the parenchyma and capillaries of the brain, a capillary depletion experiment was performed. By means of this experiment, it is possible to distinguish the transport of spilanthol into the brain (represented by the parenchyma) and part of spilanthol which is trapped by the endothelial cells of the brain (represented by the capillaries). The method of Triguero et al., as modified by Gutierrez et al., was used. Briefly, after anesthetizing the mice intraperitoneally with 40 % (w/V) urethane solution (3 g/kg), 20 μl of the 4 mg/ml spilanthol dose solution was injected into the jugular vein. Blood was collected from the abdominal aorta ten min after injection and serum was obtained by centrifuging the blood at 10 000 g during 15 min at 21 °C. Immediately after blood collection, the skin of the mice’s chest is removed to clamp the aorta and the jugular veins are severed. Immediately after clamping the aorta, the brain is perfused manually with 20 ml of Lactated Ringer’s solution. […]
The distribution was calculated as follows: Fraction%=Mtissue/Mcapillaries+Mparenchyma×100 where Mtissue represents the amount of spilanthol in the capillaries, respectively parenchyma; Mcapillaries the amount of spilanthol in the capillaries and Mparenchyma the amount of spilanthol in the parenchyma.

Another data set relates to Caco-2 cell monolayer. Put plainly: Caco-2 cell permeability assay (Transwell, ab and ba direction). It is filed as in vitro ADME, human. The method, then: (§1) Caco-2 cells, originating from a human colorectal carcinoma were maintained in Dulbecco's modified Eagle's medium (DMEM) at 95 % humidity and 37 °C in an atmosphere of 5 % CO2, supplemented with 10 % (V/V) fetal bovine serum, 2 mM L-glutamine and 1 % non-essential amino acids (100x), 100 U/ml penicillin and 100 μg/ml streptomycin (all from Invitrogen/GIBCO, Ghent, Belgium). The Caco-2 cell intestinal model was used as a model for the gut mucosa to investigate the permeation of spilanthol. Caco-2 cells were seeded at a density of 2.6 · 10^5 cells/cm^2 cells for each Transwell (Corning Costar, New York, USA) membrane insert filter (0.4 μm pore size, 12 mm filter diameter) and cultivated in the described supplemented DMEM, also containing 100 units/ml penicillin and 100 μg/ml streptomycin. The medium was changed every second day. The cells were allowed to grow and differentiate for 21-29 days until monolayers were formed. Intact membranes/integrity of the monolayers were checked via the measurement of transepithelial electrical resistance (TEER) of the monolayers using the Millicell-ERS system (Millipore Corp., Bedford, MA, USA) before and after transport experiments. The experiment was performed in duplicate for each dose solution. Transport experiments were carried out in the apical-to-basolateral (ab) direction and in the basolateral-to-apical (ba) direction in Hanks' Balanced Salt solution, according to Hubatsch et al.. Two dose solutions of purified spilanthol at 10 μg/ml were tested, differing in solvent: 0.5 % ethanol (further indicated as DS1) and 0.5 % of a mixture of vitamin E-TPGS (33.3 %), ethanol (11.1 %), PEG 400 (33.3 %) and PG (22.2 %) (further indicated as DS2) dissolved in HBSS. Final volumes of 0.4 ml apically and 1.2 ml basolaterally were used for 12-mm filter supports during the transport experiment. Samples were taken at 15, 30, 60, 90 and 120 min from the acceptor (= receiver) compartment (basolateral to apical transport: 100 μl; apical to basolateral transport: 300 μl) and were immediately replaced by fresh HBSS. […] Quantification of spilanthol was conducted using the UPLC-MS^2 method as described below. The apparent permeability coefficient (Papp in cm/s) of spilanthol was calculated from a non-sink equation. From Fick's first law: J = - […] is the diffusion coefficient, J is the flux or transfer rate along the donor-to-receptor side, x is the distance from the donor compartment and C(x) is the concentration in the barrier at the coordinate x in the barrier), the following differential equation is derived: dMr(t)/dt = Papp × […])], in which Mr is the amount of substance in the receiver chamber, Papp is the apparent permeability coefficient (a product of distribution coefficient with diffusion coefficient divided by the barrier thickness), A is the cross-sectional area of the barrier, Cd is the donor concentration and Cr is the receiver concentration. This differential equation is the basis to calculate Papp values of compounds requiring sink, as well as non-sink conditions with different initial conditions to solve this equation. […] Non-linear curve fitting by minimisation of the sum of squared residuals (SSR) was used to obtain the Papp. The efflux ratio is calculated as Papp,ba/Papp,ab, while the uptake ratio is calculated as Papp,ab/Papp,ba.

Test in data set [3]: as above
Format: in vitro ADME, human. The settings on record: human; for Papp A→B at 120 min, 10 μg/ml / Papp B→A at 120 min, 10 μg/ml: mean ± SD, n = 2; for Papp A→B at 120 min, 10 μg/ml: read-out: apparent permeability coefficient (Papp), apical-to-basolateral; for Papp B→A at 120 min, 10 μg/ml: read-out: apparent permeability coefficient (Papp), basolateral-to-apical; for efflux ratio at 120 min, 10 μg/ml: read-out: efflux ratio (Papp,ba/Papp,ab). The method, then:
as §1

For `C/C=C/C=C\CC/C=C/C(=O)NCC(C)C` [spilanthol, deca-2E,6Z,8E-trienoic acid isobutylamide], the “permeability coefficient Kp,aq” value in data set [1] is 0.919 ×10⁻⁶ cm/s. Besides, the Kp at 10 min in data set [2] (brain capillaries/serum, read-out: spilanthol in brain capillaries (brain/serum ratio)) came out at 0.0024; in data set [2] (brain parenchyma/serum, read-out: spilanthol in brain parenchyma (brain/serum ratio)) it was 0.138. The “uptake ratio (Papp,ab/Papp,ba)” value with Caco-2 cell monolayer (DS1) worked out at 0.82; in the data set with Caco-2 cell monolayer (DS2), 1.08. Moreover, the “amount of spilanthol permeated, apical-to-basolateral” value in the data set with Caco-2 cell monolayer (DS1, after 120 min) came out at 3.20 µg; with Caco-2 cell monolayer (DS2, after 120 min), 2.47 µg. Further, the “amount of spilanthol permeated, basolateral-to-apical” value turned out to be 3.86 µg in the data set with Caco-2 cell monolayer (DS1, after 120 min) and 2.49 µg in the data set with Caco-2 cell monolayer (DS2, after 120 min). The “percentage of applied spilanthol permeated, apical-to-basolateral” value in the data set on Caco-2 cell monolayer (DS1, after 120 min) is reported as 79.8%; in the data set on Caco-2 cell monolayer (DS2, after 120 min), 64.3%. The “percentage of applied spilanthol permeated, basolateral-to-apical” value was found to be 32.1% in the data set with Caco-2 cell monolayer (DS1, after 120 min) and 21.6% with Caco-2 cell monolayer (DS2, after 120 min). The “percentage of applied DS permeated, apical-to-basolateral (absorptive direction)” value in the data set on Caco-2 cell monolayer (after 120 min, DS1 and DS2) is listed as 64–80%. Moreover, in the data set with Caco-2 cell monolayer (both dose solutions), the “difference in Papp values between apical-to-basolateral and basolateral-to-apical direction” value is “less than 2 fold”. For the same compound, the Papp A→B at 120 min, 10 μg/ml in data set [3] (Caco-2, DS1 (10 μg/ml purified spilanthol, 0.5 % ethanol in HBSS)) is 84.2 ×10⁻⁶ cm/s; in data set [3] (Caco-2, DS2 (10 μg/ml, 0.5 % vitamin E-TPGS/ethanol/PEG 400/PG mixture in HBSS)), 56.1 ×10⁻⁶ cm/s. The Papp B→A at 120 min, 10 μg/ml in data set [3] (Caco-2, DS1) came out at 102 ×10⁻⁶ cm/s; in data set [3] (Caco-2, DS2) it was 52 ×10⁻⁶ cm/s. The efflux ratio at 120 min, 10 μg/ml in data set [3] (Caco-2, DS1) is 1.21; in data set [3] (Caco-2, DS2) it was 0.93. Moreover, in data set [3] (Caco-2, donor plus acceptor at last time point (120 min), read-out: mass balance, total recovery), the recovery at 120 min, 10 μg/ml was in the range of 105 to 121%.
